Assay results reported in US11697646B2, “Triazole N-linked carbamoyl cyclohexyl acids as LPA antagonists” (BRISTOL-MYERS SQUIBB COMPANY, priority 2017, dated 2023).

These molecules were tested against T1, human LPA1 (Homo sapiens, UniProt Q92633) (assay: LPA1 functional antagonist assay (calcium flux)). Conditions: CHO cells overexpressing human LPA1; calcium flux induced by 10 nM LPA; read-out: hLPA1 IC50.
T1 construct: expressed in transfected cells; host or cells: Chinese hamster ovary (CHO) cells
T1 sequence (Q92633 whole entry): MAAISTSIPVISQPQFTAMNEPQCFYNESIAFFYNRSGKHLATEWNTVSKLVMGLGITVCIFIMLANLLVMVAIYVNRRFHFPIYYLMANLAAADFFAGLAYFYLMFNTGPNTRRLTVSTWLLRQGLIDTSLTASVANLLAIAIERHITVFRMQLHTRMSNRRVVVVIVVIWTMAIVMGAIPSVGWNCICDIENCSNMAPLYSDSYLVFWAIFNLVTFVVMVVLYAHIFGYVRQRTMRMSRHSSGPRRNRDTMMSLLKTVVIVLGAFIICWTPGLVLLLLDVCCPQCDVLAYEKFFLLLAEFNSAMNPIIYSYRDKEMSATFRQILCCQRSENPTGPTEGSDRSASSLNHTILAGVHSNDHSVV
Format: cell-based
Protocol: The effectiveness of compounds of the present invention as LPA1 inhibitors can be determined in an LPA1 functional antagonist assay as follows:
The cells were then equilibrated to room temperature for 30 minutes before the assay. […] IC50 values were determined by fitting data to a 4-parameter logistic equation (GraphPad Prism, San Diego Calif.).

| SMILES | IC50 [nM] |
| --- | --- |
| CC(COC(=O)NCc1c(-c2ccc(O[C@H]3CCC[C@H](C(=O)O)C3)cn2)nnn1C)CC(F)(F)F (mixture of isomers) [Example 31, (1S,3S)-3-((6-(1-methyl-5-((((4,4,4-trifluoro-2-methylbutoxy)carbonyl)amino)methyl)-1H-1,2,3-triazol-4-yl)pyridin-3-yl)oxy)cyclohexanecarboxylic acid] | 102 |
| Cc1nc(-c2nnn(C)c2CNC(=O)OCC(C)CC(F)(F)F)ccc1O[C@H]1CCC[C@H](C(=O)O)C1 (mixture of isomers) [Example 32, (1S,3S)-3-((2-methyl-6-(1-methyl-5-((((4,4,4-trifluoro-2-methylbutoxy)carbonyl)amino)methyl)-1H-1,2,3-triazol-4-yl)pyridin-3-yl)oxy)cyclo-hexane-1-carboxylic acid] | 69 |
| Cn1nnc(-c2ccc(O[C@H]3CCC[C@H](C(=O)O)C3)cn2)c1CNC(=O)OCC1CC(F)C1 (mixture of isomers) [Example 47, (1S,3S)-3-((6-(5-(((((3-fluorocyclobutyl)methoxy)carbonyl)amino)methyl)-1-methyl-1H-1,2,3-triazol-4-yl)pyridin-3-yl)oxy)cyclohexane-1-carboxylic acid] | 854 |
| CCCC(NC(=O)NCc1c(-c2ccc(O[C@H]3CCC[C@H](C(=O)O)C3)c(C)n2)nnn1C)c1ccccc1 (mixture of isomers) [Example 119, (1S,3S)-3-((2-methyl-6-(1-methyl-5-((3-(1-phenylbutyl)ureido)methyl)-1H-1,2,3-triazol-4-yl)pyridin-3-yl)oxy)cyclo-hexane-1-carboxylic acid] | 187 |
| CCC(NC(=O)NCc1c(-c2ccc(O[C@H]3CCC[C@H](C(=O)O)C3)c(C)n2)nnn1C)c1ccccc1 (mixture of isomers) [Example 120, (1S,3S)-3-((2-methyl-6-(1-methyl-5-((3-(1-phenylpropyl)ureido)methyl)-1H-1,2,3-triazol-4-yl)pyridin-3-yl)oxy)cyclo-hexane-1-carboxylic acid] | 238 |
| Cc1nc(-c2nnn(C)c2CNC(=O)NC(CF)c2ccccc2)ccc1O[C@H]1CCC[C@H](C(=O)O)C1 (mixture of isomers) [Example 121, (1S,3S)-3-((6-(5-((3-(2-fluoro-1-phenyl-ethyl)ureido)methyl)-1-methyl-1H-1,2,3-triazol-4-yl)-2-methylpyridin-3-yl)oxy)cyclohexane-1-carboxylic acid] | 555 |
| CCCC(C)NC(=O)Nc1c(-c2ccc(O[C@H]3CCC[C@H](C(=O)O)C3)c(C)n2)nnn1C (mixture of isomers) [Example 147, (1S,3S)-3-((2-methyl-6-(1-methyl-5-(3-(pentan-2-yl)ureido)-1H-1,2,3-triazol-4-yl)pyridin-3-yl)oxy)cyclo-hexane-1-carboxylic acid] | 517 |
| Cc1nc(-c2nnn(C)c2CCNC(=O)CC(C)CC(C)(C)C)ccc1O[C@H]1CCC[C@H](C(=O)O)C1 (mixture of isomers) [Example 239, (1S,3S)-3-((2-methyl-6-(1-methyl-5-(2-(3,5,5-trimethylhexanamido)ethyl)-1H-1,2,3-triazol-4-yl)pyridin-3-yl)oxy)cyclohexane-1-carboxylic acid (diastereomeric mixture)] | 1020 |
| Cn1nnc(-c2ccc(O[C@@H]3CCC[C@@H](C(=O)O)C3)cc2)c1CNC(=O)OCCC1CC1 (racemic) [Example 39, (±)-trans-3-(4-(5-((((2-cyclopropylethoxy)carbonyl)amino)methyl)-1-methyl-1H-1,2,3-triazol-4-yl)phenoxy)cyclohexane-1-carboxylic acid] | 457 |
| Cn1nnc(-c2ccc(O[C@@H]3CCC[C@@H](C(=O)O)C3)cc2)c1CNC(=O)OCc1ccccc1 (racemic) [Example 40, (±)-trans-3-(4-(5-((((benzyloxy)carbonyl)amino)methyl)-1-methyl-1H-1,2,3-triazol-4-yl)phenoxy)cyclohexane-1-carboxylic acid] | 664 |
| Cc1nc(-c2nnn(C)c2CNC(=O)N(C)C(C)C(C)C)ccc1O[C@H]1CCC[C@H](C(=O)O)C1 (single isomer, unassigned) [Example 125] | 1210 |
| Cc1nc(-c2nnn(C)c2CNC(=O)NC(C)C(C)C)ccc1O[C@H]1CCC[C@H](C(=O)O)C1 (single isomer, unassigned) [Example 126] | 611 |
| Cc1nc(-c2nnn(C)c2CNC(=O)OCc2ccccc2)ccc1O[C@@H]1CCC[C@@](F)(C(=O)O)C1 (single isomer, unassigned) [Example 211] | 192 |
| CC[C@H](C)COC(=O)NCc1c(-c2ccc(O[C@H]3CCC[C@H](C(=O)O)C3)c(C)n2)nnn1C [Example 1, (1S,3S)-3-((2-Methyl-6-(1-methyl-5-(((((S)-2-methylbutoxy)carbonyl)amino)methyl)-1H-1,2,3-triazol-4-yl)pyridin-3-yl)oxy)cyclohexanecarboxylic acid] | 18 |
| CC[C@H](C)COC(=O)N(C)Cc1c(-c2ccc(O[C@H]3CCC[C@H](C(=O)O)C3)c(C)n2)nnn1C [Example 2, (1S,3S)-3-((2-Methyl-6-(1-methyl-5-((methyl(((S)-2-methylbutoxy)carbonyl)amino)methyl)-1H-1,2,3-triazol-4-yl)pyridin-3-yl)oxy)cyclohexanecarboxylic acid] | 29 |

Other lines, results leading:

| IC50 [nM] | SMILES |
| --- | --- |
| 48 | Cc1nc(-c2nnn(C)c2CNC(=O)OCC2CC(F)C2)ccc1O[C@H]1CCC[C@H](C(=O)O)C1 (mixture of isomers) [Example 48, (1S,3S)-3-((6-(5-(((((3-fluorocyclobutyl)methoxy)carbonyl)amino)methyl)-1-methyl-1H-1,2,3-triazol-4-yl)-2-methylpyridin-3-yl)oxy)cyclohexane-1-carboxylic acid] |
| 85 | Cc1nc(-c2nnn(C)c2NC(=O)OC(C)C2CC2)ccc1O[C@H]1CCC[C@H](C(=O)O)C1 (mixture of isomers) [Example 69, (1S,3S)-3-((6-(5-(((1-cyclopropyl-ethoxy)carbonyl)amino)-1-methyl-1H-1,2,3-triazol-4-yl)-2-methyl-pyridin-3-yl)oxy)cyclohexane-1-carboxylic acid] |
| 105 | CCC(C)CNC(=O)NCc1c(-c2ccc(O[C@H]3CCC[C@H](C(=O)O)C3)c(C)n2)nnn1C (mixture of isomers) [Example 118, (1S,3S)-3-((2-methyl-6-(1-methyl-5-((3-(2-methylbutyl)ureido)methyl)-1H-1,2,3-triazol-4-yl)pyridin-3-yl)oxy)cyclo-hexane-1-carboxylic acid] |
| 142 | Cc1nc(-c2nnn(C)c2CNC(=O)NC(C)c2ccccc2)ccc1O[C@H]1CCC[C@H](C(=O)O)C1 (mixture of isomers) [Example 129, (1S,3S)-3-((2-methyl-6-(1-methyl-5-((3-(1-phenylethyl)ureido)methyl)-1H-1,2,3-triazol-4-yl)pyridin-3-yl)oxy)cyclo-hexane-1-carboxylic acid] |
| 52 | Cc1nc(-c2nnn(C)c2NC(=O)OCC2CC2C)ccc1O[C@H]1CCC[C@H](C(=O)O)C1 (mixture of isomers) [Example 223, (1S,3S)-3((2-methyl-6-(1-methyl-5-((((2-methylcyclopropyl)methoxy)carbonyl)amino)-1H-1,2,3-triazol-4-yl)pyridin-3-yl)oxy)cyclohexane-1-carboxylic acid (mixture of cyclopropyl diastereomers)] |
| 148 | CC(C)CCOC(=O)NCc1c(-c2ccc(O[C@@H]3CCC[C@@H](C(=O)O)C3)cc2)nnn1C (racemic) [Example 4, (±)-(trans)-3-(4-(5-((((isopentyloxy)carbonyl)amino)methyl)-1-methyl-1H-1,2,3-triazol-4-yl)phenoxy)cyclohexane-1-carboxylic acid] |
| 12 | Cc1nc(-c2nnn(C)c2CNC(=O)OCc2ccccc2)ccc1O[C@@H]1CCC[C@@](F)(C(=O)O)C1 (racemic) [Example 209, (±)-Cis-3-((6-(5-((((benzyloxy)carbonyl)amino)methyl)-1-methyl-1H-1,2,3-triazol-4-yl)-2-methylpyridin-3-yl)oxy)-1-fluorocyclohexanecarboxylic acid] |
| 44 | Cc1nc(-c2nnn(C)c2CNC(=O)OCC2CC2(F)F)ccc1OC1CCCC(C(=O)O)C1 (single isomer, unassigned) [Example 207] |
| 5 | Cc1nc(-c2nnn(C)c2CNC(=O)OCc2ccccc2)ccc1O[C@@H]1CCC[C@@](F)(C(=O)O)C1 (single isomer, unassigned) [Example 210] |

Same assay, conditions: human LPA1 functional antagonist assay; read-out: hLPA1 IC50

| IC50 [nM] | SMILES |
| --- | --- |
| 53 | Cc1nc(-c2nnn(C)c2CNC(=O)OCC2CC2(F)F)ccc1O[C@H]1CCC[C@H](C(=O)O)C1 (mixture of isomers) [Example 180, (1S,3S)-3-((6-(5-(((((2,2-difluoro-cyclopropyl)methoxy)carbonyl)amino)methyl)-1-methyl-1H-1,2,3-triazol-4-yl)-2-methylpyridin-3-yl)oxy)cyclohexane-1-carboxylic acid (diastereomers at cyclopropyl carbon)] |
| 96 | Cc1nc(-c2nnn(C)c2CNC(=O)OCC(C)C(F)(F)F)ccc1O[C@H]1CCC[C@H](C(=O)O)C1 (mixture of isomers) [Example 204, (1S,3S)-3((2-methyl-6-(1-methyl-5-((((3,3,3-trifluoro-2-methylpropoxy)carbonyl)amino)methyl)-1H-1,2,3-triazol-4-yl)pyridin-3-yl)oxy)cyclohexane-1-carboxylic acid] |
| 32 | Cc1nc(-c2nnn(C)c2CNC(=O)OC[C@H]2C[C@@H]2C)ccc1O[C@H]1CCC[C@H](C(=O)O)C1 (stereo in doubt) [Example 183, (1S,3S)-3((2-methyl-6-(1-methyl-5-(((((trans-2-methylcyclopropyl)methoxy)carbonyl)amino)methyl)-1H-1,2,3-triazol-4-yl)pyridin-3-yl)oxy)cyclohexane-1-carboxylic acid] |
